1 molecule from patent US7259171B2, “Di and trifluoro-triazolo-pyridines anti-inflammatory compounds” (Pfizer Inc., priority 2002, dated 2007) can be followed below.

Molecules are shown by their SMILES.

Molecule `CC(C)c1nnc2ccc(-c3ocnc3-c3c(F)cccc3F)cn12` [Example 1, 6-[4-(2,6-Difluoro-phenyl)-oxazol-5-yl]-3-isopropyl-[1,2,4]triazolo[4,3-a]pyridine] showed a melting point of 175.7 to 176.2 °C.
